# In PMC7839672, “Effect of the PHY Domain on the Photoisomerization Step of the Forward Pr→Pfr Conversion of a Knotless Phytochrome” (Chemistry (Weinheim an Der Bergstrasse, Germany), 2020):
# Biological target: T1, All2699g1g2 (g1g2) (Nostoc sp. PCC 7120 = FACHB-418, UniProt A0ACD6B963)
# T1 construct: gene all2699; GAF1-GAF2 (GAF-PHY) photosensory module of All2699; borders, tags and host not in main text
# Assay: steady-state absorption, CD and femtosecond transient absorption of the chromophore-bound protein
# Type: binding
# Details: covalent (known biology, not given); chromophore embedded in GAF1 domain; Pr and Pfr states
# T1 sequence (A0ACD6B963 1-656 limits assumed): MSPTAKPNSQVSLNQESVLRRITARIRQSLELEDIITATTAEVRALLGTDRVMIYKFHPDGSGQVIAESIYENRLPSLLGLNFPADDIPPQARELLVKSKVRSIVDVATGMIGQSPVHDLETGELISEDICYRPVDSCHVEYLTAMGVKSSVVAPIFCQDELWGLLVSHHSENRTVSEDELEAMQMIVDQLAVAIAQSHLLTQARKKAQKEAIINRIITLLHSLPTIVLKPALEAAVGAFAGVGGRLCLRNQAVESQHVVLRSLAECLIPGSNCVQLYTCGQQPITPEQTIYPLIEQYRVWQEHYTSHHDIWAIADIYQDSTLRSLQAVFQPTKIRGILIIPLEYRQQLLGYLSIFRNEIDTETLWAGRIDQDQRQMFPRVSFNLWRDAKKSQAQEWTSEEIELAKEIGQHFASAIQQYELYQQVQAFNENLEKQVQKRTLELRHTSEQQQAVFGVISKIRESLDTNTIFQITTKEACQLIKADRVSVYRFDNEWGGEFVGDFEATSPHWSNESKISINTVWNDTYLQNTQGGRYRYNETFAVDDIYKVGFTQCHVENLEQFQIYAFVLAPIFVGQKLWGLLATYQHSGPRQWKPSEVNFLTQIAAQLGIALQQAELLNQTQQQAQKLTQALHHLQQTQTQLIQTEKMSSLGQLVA
smiles,measurement,value
"C/C=C1/C(=C/C2=NC(=C\c3[nH]c(/C=C4\NC(=O)C(CC)=C4C)c(C)c3CCC(=O)O)/C(CCC(=O)O)=C2C)NC(=O)[C@@H]1C [PCB, phycocyanobilin]","steady-state absorption, CD and femtosecond transient absorption of the chromoph",interactions of the PCB chromophore with the “tongue” region of the g2 domain in g1g2
